This is an account of results in patent US6218365A, “Serine protease inhibitors” (Akzo Nobel N.V., priority 1996, dated 2001).

pIC50: −log10 of the molar value.

The test concerns the target T1, Human thrombin (Homo sapiens, UniProt P00734).
T1 construct: purchased Centraal Laboratorium voor Bloedtransfusie, Amsterdam, The Netherlands
In words: Anti-thrombin assay (hydrolysis of chromogenic substrate S-2238 by thrombin). Format: biochemical. The conditions noted are these: final concentration causing 50% inhibition of the maximum absorbance of the blank; substrate S-2238, TNP buffer, 37° C. Here is the method:
Thrombin (Factor IIa) is a factor in the coagulation cascade. The anti-thrombin activity of compounds of the present invention was assessed by measring spectrophotometrically the rate of hydrolysis of the chromogenic substrate s-2238 exterted by thrombin. Ths assay for anti-thrombin activity in a buffer system was used to assess the IC50 -value of a test compound.
Test medium: Trometbine-NaCl-polyethylene glycol 6000 (TNP) buffer. Reference compomd: 12581 (Kabi) Vehicle: TNP buffer. Solubilisation can be assisted with dimethylsulphoxide, methanol, ethanol, acetonitrile or tert.-butyl alcohol which are without adverse effects in concentrations up to 2.5% in the final reaction mixture.
Reagents*: 1. Tromethamine-NaCl (TN) buffer. Composition of the buffer: Tromethaine (Tris) 6.057 g (50 mmol), NaCl 5.844 g (100 mmol), water to 1 l. The pH of the solution is adjusted to 7.4 at 37° C. with HCl (10 mmol·l^-1). 2. TNP buffer: Polyethylene glycol 6000 is dissolved in TN buffer to give a concentration of 3 g·l^-1 3. S-2238 solution: One vial S-2238 (25 mg; Kabi Diagnostica, Sweden) is dissolved in 20 ml TN buffer to give a concentration of 1.25 mg·ml^-1 (2 mmol l^-1). 4. Thrombin solution: Human thrombin (16 000 nKat·vial^-1; Centraal Laboratorium voor Bloedtransfusie, Amsterdam, The Netherlands) is dissolved in TNP buffer to give a stock solution of 835 nKat·ml^-1. Immediately before use this solution is diluted with TNP buffer to give a concentration of 3.34 nKat·ml^-1.
The test and reference compounds are dissolved in Milli-Q water to give stock concentrations of 10^-2 mol·l^31 1. Each concentration is stepwise diluted with the vehicle to give concentrations of 10^-3, 10^31 4 and 10^-5 mol·l^-1. The dilutions, including the stock solution, are used in the assay (fina concentrations in the reaction mixture: 3·10^-3; 10^31 3; […]; 3·10^-5; 10^-5; 3·10^-6 and 10^-6 mol·l^-1, respectively).
At room temperature 0.075 ml and 0.025 ml test compound or reference compound solutions or vehicle are alternately pipetted into the wells of a microtiter plate and these solutions are diluted with 0.115 ml and […] TNP buffer, respectively. An aliquot of 0.030 ml S-2238 solution is added to each well and the plate is preheated and pre-incubated with shaking in an incubator (Amersham) for 10 min. at 37° C. Following pre-incubation the hydrolysis of S-2238 is started by addition of 0.030 ml thrombin solution to each well. The plate is incubated (with shaking for 30 s) at 37° C. Starting after 1 min of incubation, the absorbance of each sample at 405 nm is measured every 2 min. for a period of 90 min. using a kinetic microtiter plate reader (Twinreader plus, Flow Laboratories).
All data are collected in an IBM personal computer using LOTUS-MEASURE. For each compound concentration (expressed in mol·l^-1 reaction mixture) and for the blank the absorbance is plotted versus the reaction time in min.
Evaluation of responses: For each final concentration the maximum absorbance was calculated from the assay plot. The IC50 -value (final concentration, expressed in μmol·l^-1, causing 50% inhibition of the maximum absorbance of the blank) was calculated using the logit transformation analysis according to Hafier et al. (Arzneim.-Forsch.ADrug Res. 1977; 27(II): 1871-3).
With “HOOC--CH2 --D--Cha--Pro--Ppa.PSI.[COCO]--NHMe [Example 31]”, the pIC50 is 6.61. With “HOOC--CH2 --D--Phe--Pro--Ppa.PSI.[COCO]--OH [Example 3]” the figure was 6.27; with “EthylSOx --D--Phe--Pr0--.PSI.[COCO]--NH2 [Example 38]”, 5.74.

“HOOC--CH2 --p--Cl--D--Phe--Pro--Ppa--(2-thiazolyl) [Example 47]” had a pIC50 of 5.55. “HOOC--CH2 --D--Coa--Pro--Ppa--(2-thiazolyl) [Example 53]” had a negative logarithm of the IC50 (pIC50) of 5.59. The substance “3,3-Diphenyipropionyl--Pro--Ppa.PSI.[COCO]--OH [Example 15]” had a pIC50 of 6.02.

In general, pIC50 refers to the IC50 on a negative log10 scale, so that one unit is a factor of ten. A higher pIC50 goes with a low IC50.
